Results reported in ChEMBL document CHEMBL5260845, “Flavone-based arylamides as potential anticancers: Design, synthesis and in vitro cell-based/cell-free evaluations” (2020).
The source made the active and inactive calls. No cut-off for these calls is given here.

Assays:
[1] = system: SK-MEL-5; experiment: Antiproliferative activity against human SK-MEL-5 cells assessed as cell growth inhibition at 10 uM by SRB assay relative to control; assay type: functional
[2] = system: Malme-3M; experiment: Antiproliferative activity against human Malme-3M cells assessed as cell growth inhibition at 10 uM by SRB assay relative to control; assay type: functional
[3] = system: RPMI-8226; experiment: Antiproliferative activity against human RPMI-8226 cells assessed as cell growth inhibition at 10 uM by SRB assay relative to control; assay type: functional
[4] = system: CCRF-CEM; experiment: Antiproliferative activity against human CCRF-CEM cells assessed as cell growth inhibition at 10 uM by SRB assay; assay type: functional, cell-based
[5] = system: HL-60; experiment: Antiproliferative activity against human HL-60 cells assessed as cell growth inhibition at 10 uM by SRB assay; assay type: functional, cell-based
[6] = system: K562; experiment: Antiproliferative activity against human K562 cells assessed as cell growth inhibition at 10 uM by SRB assay; assay type: functional, cell-based
[7] = system: MOLT-4; experiment: Antiproliferative activity against human MOLT-4 cells assessed as cell growth inhibition at 10 uM by SRB assay; assay type: functional, cell-based
[8] = system: RPMI-8226; experiment: Antiproliferative activity against human RPMI-8226 cells assessed as cell growth inhibition at 10 uM by SRB assay; assay type: functional, cell-based
[9] = system: SR; experiment: Antiproliferative activity against human SR cells assessed as cell growth inhibition at 10 uM by SRB assay; assay type: functional, cell-based
[10] = system: A549; experiment: Antiproliferative activity against human A549 cells assessed as cell growth inhibition at 10 uM by SRB assay; assay type: functional, cell-based
[11] = system: EKVX; experiment: Antiproliferative activity against human EKVX cells assessed as cell growth inhibition at 10 uM by SRB assay; assay type: functional
[12] = system: HOP-62; experiment: Antiproliferative activity against human HOP-62 cells assessed as cell growth inhibition at 10 uM by SRB assay; assay type: functional, cell-based
[13] = system: NCI-H226; experiment: Antiproliferative activity against human NCI-H226 cells assessed as cell growth inhibition at 10 uM by SRB assay; assay type: functional
[14] = system: NCI-H23; experiment: Antiproliferative activity against human NCI-H23 cells assessed as cell growth inhibition at 10 uM by SRB assay; assay type: functional
[15] = system: NCI-H322M; experiment: Antiproliferative activity against human NCI-H322M cells assessed as cell growth inhibition at 10 uM by SRB assay; assay type: functional, cell-based
[16] = system: NCI-H460; experiment: Antiproliferative activity against human NCI-H460 cells assessed as cell growth inhibition at 10 uM by SRB assay; assay type: functional, cell-based
[17] = system: NCI-H522; experiment: Antiproliferative activity against human NCI-H522 cells assessed as cell growth inhibition at 10 uM by SRB assay; assay type: functional, cell-based
[18] = system: NCI-H522; experiment: Antiproliferative activity against human NCI-H522 cells assessed as cell growth inhibition at 10 uM by SRB assay relative to control; assay type: functional
[19] = system: COLO 205; experiment: Antiproliferative activity against human COLO 205 cells assessed as cell growth inhibition at 10 uM by SRB assay relative to control; assay type: functional
[20] = system: HCC 2998; experiment: Antiproliferative activity against human HCC 2998 cells assessed as cell growth inhibition at 10 uM by SRB assay relative to control; assay type: functional
[21] = system: COLO 205; experiment: Antiproliferative activity against human COLO 205 cells assessed as cell growth inhibition at 10 uM by SRB assay; assay type: functional, cell-based
[22] = system: HCC 2998; experiment: Antiproliferative activity against human HCC 2998 cells assessed as cell growth inhibition at 10 uM by SRB assay; assay type: functional, cell-based
[23] = system: HCT-116; experiment: Antiproliferative activity against human HCT-116 cells assessed as cell growth inhibition at 10 uM by SRB assay; assay type: functional, cell-based
[24] = system: HCT-15; experiment: Antiproliferative activity against human HCT-15 cells assessed as cell growth inhibition at 10 uM by SRB assay; assay type: functional, cell-based
[25] = system: KM12; experiment: Antiproliferative activity against human KM12 cells assessed as cell growth inhibition at 10 uM by SRB assay; assay type: functional, cell-based
[26] = system: U-251; experiment: Antiproliferative activity against human U-251 cells assessed as cell growth inhibition at 10 uM by SRB assay relative to control; assay type: functional
[27] = system: SF-539; experiment: Antiproliferative activity against human SF-539 cells assessed as cell growth inhibition at 10 uM by SRB assay relative to control; assay type: functional
[28] = system: UACC-257; experiment: Antiproliferative activity against human UACC-257 cells assessed as cell growth inhibition at 10 uM by SRB assay relative to control; assay type: functional
[29] = system: UACC-62; experiment: Antiproliferative activity against human UACC-62 cells assessed as cell growth inhibition at 10 uM by SRB assay relative to control; assay type: functional
[30] = system: LOX IMVI; experiment: Antiproliferative activity against human LOX IMVI cells assessed as cell growth inhibition at 10 uM by SRB assay relative to control; assay type: functional
[31] = system: MDA-MB-435; experiment: Antiproliferative activity against human MDA-MB-435 cells assessed as cell growth inhibition at 10 uM by SRB assay relative to control; assay type: functional
[32] = system: OVCAR-8; experiment: Antiproliferative activity against human OVCAR-8 cells assessed as cell growth inhibition at 10 uM by SRB assay relative to control; assay type: functional
[33] = system: IGROV-1; experiment: Antiproliferative activity against human IGROV-1 cells assessed as cell growth inhibition at 10 uM by SRB assay relative to control; assay type: functional
[34] = system: 786-0; experiment: Antiproliferative activity against human 786-0 cells assessed as inhibition of cell growth at 10 uM by SRB assay relative to control; assay type: functional
[35] = system: ACHN; experiment: Antiproliferative activity against human ACHN cells assessed as inhibition of cell growth at 10 uM by SRB assay relative to control; assay type: functional; conditions: pooled result: one value given for 2 cell lines, strains, targets or settings
[36] = system: RXF 393; experiment: Antiproliferative activity against human RXF 393 cells assessed as inhibition of cell growth at 10 uM by SRB assay relative to control; assay type: functional
[37] = system: SN12C; experiment: Antiproliferative activity against human SN12C cells assessed as inhibition of cell growth at 10 uM by SRB assay relative to control; assay type: functional
[38] = system: CAKI-1; experiment: Antiproliferative activity against human CAKI-1 cells assessed as inhibition of cell growth at 10 uM by SRB assay relative to control; assay type: functional
[39] = system: DU-145; experiment: Antiproliferative activity against human DU-145 cells assessed as inhibition of cell growth at 10 uM by SRB assay; assay type: functional, cell-based
[40] = system: Melanoma cell line; experiment: Antiproliferative activity against human melanoma cells assessed as cell growth inhibition at 10 uM by SRB assay relative to control; assay type: functional
[41] = Antiproliferative activity against human hematologic cancer cells assessed as cell growth inhibition at 10 uM by SRB assay relative to control; assay type: functional
[42] = system: Renal cancer cell line; experiment: Antiproliferative activity against human renal cancer cells assessed as cell growth inhibition at 10 uM by SRB assay relative to control; assay type: functional
[43] = Antiproliferative activity against human colon cancer cells assessed as cell growth inhibition at 10 uM by SRB assay relative to control; assay type: functional; conditions: Colon carcinoma cell
[44] = system: Breast carcinoma cell; experiment: Antiproliferative activity against human breast cancer cells assessed as cell growth inhibition at 10 uM by SRB assay relative to control; assay type: functional; conditions: pooled result: one value given for 3 cell lines, strains, targets or settings
[45] = system: RPMI-8226; experiment: Antiproliferative activity against human RPMI-8226 cells assessed as cell growth inhibition by SRB assay; assay type: functional

Structure (SMILES): COc1cc2oc(-c3cccc(C(=O)Nc4ccc(Cl)cc4)c3)cc(=O)c2c(OC)c1OC
- inhibition at 10 µM [1]: 107%
- inhibition at 10 µM [2]: 85.8%
- inhibition at 10 µM [3]: 82.6%
- inhibition [4]: Active
- inhibition [5]: Active
- inhibition [6]: Active
- inhibition [7]: Active
- inhibition [8]: Active
- inhibition [9]: Active
- inhibition [10]: Active
- inhibition [11]: Active
- inhibition [12]: Active
- inhibition [13]: Active
- inhibition [14]: Active
- inhibition [15]: Active
- inhibition [16]: Active
- inhibition [17]: Active
- inhibition at 10 µM [18]: 74.8%
- inhibition at 10 µM [19]: 98.3%
- inhibition at 10 µM [20]: 77.4%
- inhibition [21]: Active
- inhibition [22]: Active
- inhibition [23]: Active
- inhibition [24]: Active
- inhibition [25]: Active
- inhibition at 10 µM [26]: > 50%
- inhibition at 10 µM [27]: > 50%
- inhibition at 10 µM [28]: 107%
- inhibition at 10 µM [29]: 107%
- inhibition at 10 µM [30]: 97.8%
- inhibition at 10 µM [31]: 62.5%
- inhibition at 10 µM [32]: 56.9%
- inhibition at 10 µM [33]: 56.9%
- inhibition at 10 µM [34]: 88%
- inhibition at 10 µM [35]: 61.4%
- inhibition at 10 µM [36]: 129%
- inhibition at 10 µM [37]: 61.4%
- inhibition at 10 µM [38]: 91.8%
- inhibition [39]: Active
- inhibition at 10 µM [40]: 102%
- inhibition at 10 µM [41]: 90%
- inhibition at 10 µM [42]: 82.9%
- inhibition at 10 µM [43]: 61.5%
- inhibition at 10 µM [44]: 61.5%
- GI50 [45]: 490 nM

Structure (SMILES): COc1cc2oc(-c3cccc(C(=O)Nc4ccc(C)cc4)c3)cc(=O)c2c(OC)c1OC
- inhibition at 10 µM [1]: 108%
- inhibition at 10 µM [2]: 70.1%
- inhibition at 10 µM [3]: 82.6%
- inhibition [4]: Active
- inhibition [5]: Active
- inhibition [6]: Active
- inhibition [7]: Active
- inhibition [8]: Active
- inhibition [9]: Active
- inhibition [10]: Active
- inhibition [11]: Active
- inhibition [12]: Active
- inhibition [13]: Active
- inhibition [14]: Active
- inhibition [15]: Active
- inhibition [16]: Active
- inhibition [17]: Active
- inhibition at 10 µM [18]: 93.3%
- inhibition at 10 µM [19]: 82%
- inhibition at 10 µM [20]: 50.1%
- inhibition [21]: Active
- inhibition [22]: Active
- inhibition [23]: Active
- inhibition [24]: Active
- inhibition [25]: Active
- inhibition at 10 µM [26]: > 50%
- inhibition at 10 µM [27]: > 50%
- inhibition at 10 µM [28]: 70.1%
- inhibition at 10 µM [29]: 108%
- inhibition at 10 µM [30]: 108%
- inhibition at 10 µM [31]: 70.1%
- inhibition at 10 µM [32]: 51.8%
- inhibition at 10 µM [33]: 51.8%
- inhibition at 10 µM [34]: 55.7%
- inhibition at 10 µM [35]: 55.7%
- inhibition [36]: Active
- inhibition at 10 µM [37]: 55.7%
- inhibition at 10 µM [38]: 97.8%
- inhibition [39]: Active
- inhibition at 10 µM [40]: 95.9%
- inhibition at 10 µM [41]: 72.5%
- inhibition at 10 µM [42]: 72.5%
- inhibition at 10 µM [43]: 72.5%
- inhibition at 10 µM [44]: 53.4%
- GI50 [45]: 370 nM
